Measured values: PubChem BioAssay (NCI)
Several values for one entry are separate records, joined by “and”; a condition that tells them apart may be missing. Identical values can stand only once.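 A five-concentration, 48-hour dose response in 96-well plates underlies each endpoint, interpolated linearly between surrounding concentrations. GI50 is the concentration that inhibits growth by half. At the TGI there is no net growth.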

Columns and labels:
Assay in all cases: NCI anticancer screen, dose series, 48 h
[1] = system: TK-10 renal
[2] = system: MDA-MB-435
[3] = system: NCI-H522 lung
[4] = system: UACC-257 melanoma
[5] = system: SW-620 colon
[6] = system: SK-OV-3 ovarian
[7] = system: SF-539 CNS
[8] = system: LOX IMVI melanoma
[9] = system: EKVX NSCLC
[10] = system: MALME-3M melanoma

Structure (SMILES): CCCCCCCCCCC(O)C1CCC(C2CCC(C(O)CCCCC(O)CCCCCC(O)CC3=CC(C)OC3=O)O2)O1 (stereo not drawn)
- GI50 [1]: 1.98 µM
- TGI [1]: > 25 µM
- GI50 [2]: 1.51 µM
- TGI [2]: 9.96 µM and > 25 µM
- TGI [3]: > 25 µM
- GI50 [4]: 0.452 µM
- TGI [4]: > 25 µM
- GI50 [5]: 3.93 µM
- TGI [5]: > 25 µM
- TGI [6]: > 25 µM
- TGI [7]: > 25 µM
- GI50 [8]: 0.218 µM
- TGI [8]: 2.6 µM and > 25 µM
- GI50 [9]: > 25 µM
- TGI [9]: > 25 µM
- TGI [10]: > 25 µM

Structure (SMILES): CCC1(O)C(=O)OCc2c1cc1n(c2=O)Cc2cc3c(N)cccc3nc2-1 (stereo not drawn)
- TGI [1]: 35.8 µM
- TGI [2]: 2.88 µM
- GI50 [3]: 0.0231 µM
- TGI [3]: 0.763 µM
- TGI [4]: 2.62 µM
- GI50 [5]: 0.0531 µM
- TGI [5]: 11.7 µM
- TGI [6]: 0.804 µM
- TGI [7]: 0.0409 µM
- TGI [8]: 0.23 µM
- TGI [9]: 30.3 µM
- TGI [10]: 5.67 µM

Structure (SMILES): COc1cc2c3c(n(CCCBr)c(=O)c2cc1OC)-c1ccc(NC(C)=O)cc1C3=O
- GI50 [1]: 19.7 µM
- TGI [1]: > 100 µM
- GI50 [2]: 13.9 µM
- TGI [2]: 78.3 µM
- GI50 [3]: 12.4 µM
- TGI [3]: > 100 µM
- GI50 [4]: 28.1 µM
- TGI [4]: > 100 µM
- GI50 [5]: 0.963 µM
- TGI [5]: > 100 µM
- GI50 [6]: 2.28 µM
- TGI [6]: 10.6 µM
- GI50 [7]: 3.78 µM
- TGI [7]: 16.2 µM
- GI50 [8]: 2.1 µM
- TGI [8]: 15 µM
- GI50 [9]: 47.8 µM
- TGI [9]: > 100 µM
- GI50 [10]: 60.9 µM
- TGI [10]: > 100 µM

Structure (SMILES): CN1C(NC(=O)c2ccc(Cl)nc2)=NS(=O)(=O)c2cc(Cl)ccc21
- GI50 [1]: > 100 µM
- TGI [1]: > 100 µM
- GI50 [2]: > 100 µM
- TGI [2]: > 100 µM
- GI50 [3]: > 100 µM
- TGI [3]: > 100 µM
- GI50 [4]: > 100 µM
- TGI [4]: > 100 µM
- GI50 [5]: > 100 µM
- TGI [5]: > 100 µM
- GI50 [6]: > 100 µM
- TGI [6]: > 100 µM
- GI50 [7]: > 100 µM
- TGI [7]: > 100 µM
- GI50 [8]: > 100 µM
- TGI [8]: > 100 µM
- GI50 [9]: > 100 µM
- TGI [9]: > 100 µM
- GI50 [10]: > 100 µM
- TGI [10]: > 100 µM

Structure (SMILES): O=C(O)c1cc(N=Nc2ccc([As](=O)(O)O)cc2)ccc1O
- TGI [1]: > 100 µM
- TGI [2]: > 100 µM
- TGI [3]: > 100 µM
- TGI [4]: > 100 µM
- TGI [5]: > 100 µM
- TGI [6]: > 100 µM
- TGI [7]: > 100 µM
- TGI [8]: > 100 µM
- TGI [9]: > 100 µM
- TGI [10]: > 100 µM

Structure (SMILES): COc1cc2c(/C=C3/C(=O)Nc4cccc(Cl)c43)c(Cl)n(Cc3ccccc3)c2cc1C
- GI50 [1]: 10.4 µM
- TGI [1]: > 76.2 µM
- GI50 [2]: 1.11 µM
- TGI [2]: 5.82 µM
- GI50 [3]: 4.46 µM
- TGI [3]: > 82.2 µM
- GI50 [4]: 10.4 µM
- TGI [4]: > 78.8 µM
- GI50 [5]: 6.11 µM
- TGI [5]: > 100 µM
- GI50 [6]: 7.24 µM
- TGI [6]: > 74.8 µM
- GI50 [7]: 3.78 µM
- TGI [7]: > 100 µM
- GI50 [8]: 4.42 µM
- TGI [8]: 23.7 µM
- GI50 [9]: 6.84 µM
- TGI [9]: > 26.4 µM
- GI50 [10]: 14.2 µM
- TGI [10]: 41.4 µM

Structure (SMILES): CC(C)(C)OC(=O)N(CCCN(CCn1c2c(c3ccccc3c1=O)C(=O)c1ccccc1-2)C(=O)OC(C)(C)C)CCn1c2c(c3ccccc3c1=O)C(=O)c1ccccc1-2
- GI50 [1]: > 50 µM
- TGI [1]: > 50 µM
- GI50 [2]: > 50 µM
- TGI [2]: > 50 µM
- GI50 [3]: 47.6 µM
- TGI [3]: > 50 µM
- GI50 [4]: > 50 µM
- TGI [4]: > 50 µM
- GI50 [5]: 40.7 µM
- TGI [5]: > 50 µM
- GI50 [6]: > 50 µM
- TGI [6]: > 50 µM
- GI50 [7]: > 50 µM
- TGI [7]: > 50 µM
- GI50 [8]: > 50 µM
- TGI [8]: > 50 µM
- GI50 [9]: > 50 µM
- TGI [9]: > 50 µM
- GI50 [10]: > 50 µM
- TGI [10]: > 50 µM

Structure (SMILES): Cc1cc(C2CCCCC2)n(O)c(=O)c1
- GI50 [1]: 9.91 µM
- TGI [1]: > 100 µM
- GI50 [2]: 2.27 µM
- TGI [2]: > 100 µM
- GI50 [3]: 4.8 µM
- TGI [3]: 49.9 µM and 35.2 µM
- GI50 [4]: 2.6 µM
- TGI [4]: 21.9 µM and 8.45 µM
- GI50 [5]: 3.38 µM
- TGI [5]: > 100 µM
- GI50 [6]: 1.91 µM
- TGI [6]: > 100 µM
- GI50 [7]: 2.04 µM
- TGI [7]: 80.9 µM and 93.8 µM
- GI50 [8]: 0.757 µM
- TGI [8]: 80.3 µM and 80.1 µM
- GI50 [9]: 2.4 µM
- TGI [9]: > 100 µM
- GI50 [10]: 2.66 µM
- TGI [10]: > 100 µM and 49.4 µM

Structure (SMILES): C=C1C(=O)O[C@H]2[C@H]1CC/C(COC(=O)/C=C\C(=O)NCc1ccc(Cn3c(=O)sn(-c4ccc(C#N)cc4)c3=O)cc1)=C\CC[C@@]1(C)O[C@@H]21
- GI50 [1]: 0.888 µM
- TGI [1]: 1.61 µM
- GI50 [2]: 0.744 µM
- TGI [2]: 1.5 µM
- GI50 [3]: 0.714 µM
- TGI [3]: 1.65 µM
- GI50 [4]: 0.812 µM
- TGI [4]: 1.66 µM
- GI50 [5]: 0.353 µM
- TGI [5]: 1.22 µM
- GI50 [6]: 4.02 µM
- TGI [6]: 10.5 µM
- GI50 [7]: 0.753 µM
- TGI [7]: 1.43 µM
- GI50 [8]: 0.437 µM
- TGI [8]: 1.16 µM
- GI50 [9]: 0.797 µM
- TGI [9]: 1.57 µM
- GI50 [10]: 0.83 µM
- TGI [10]: 1.58 µM

Structure (SMILES): COc1cc(C(=O)O[C@H](C(N)=O)[C@]2(C)CO2)c2ccccc2c1
- GI50 [1]: 19.7 µM
- TGI [1]: 37.5 µM
- GI50 [2]: 23.7 µM
- TGI [2]: 53.2 µM
- GI50 [3]: 33.2 µM
- TGI [3]: > 100 µM
- GI50 [4]: 31.8 µM
- TGI [4]: > 100 µM
- GI50 [5]: 18.8 µM
- TGI [5]: > 100 µM
- GI50 [6]: 14.3 µM
- TGI [6]: 28 µM
- GI50 [7]: 2.41 µM
- TGI [7]: 7.55 µM
- GI50 [8]: 24.7 µM
- TGI [8]: 59.8 µM
- GI50 [9]: 18 µM
- TGI [9]: 50 µM
- GI50 [10]: 16.2 µM
- TGI [10]: 36.5 µM

Structure (SMILES): CN(C)C(=S)SN(C)C(=O)Nc1ccccc1
- TGI [1]: > 100 µM
- TGI [2]: > 72.5 µM
- TGI [3]: 3.5 µM
- TGI [4]: > 63.1 µM
- TGI [5]: 42.6 µM
- TGI [6]: > 100 µM
- TGI [7]: > 81.1 µM
- TGI [8]: 44.7 µM
- TGI [9]: > 100 µM
- TGI [10]: 50.3 µM
